Experimental data published in ChEMBL document CHEMBL1201862, “PubChem BioAssay data set” (2004).
Active and inactive are the calls of the source.

Key:
[1] = target: T1, Low molecular weight phosphotyrosine protein phosphatase (Homo sapiens, UniProt P24666); type: functional; details: read-out: IC50_Mean
T1 sequence (P24666 whole entry): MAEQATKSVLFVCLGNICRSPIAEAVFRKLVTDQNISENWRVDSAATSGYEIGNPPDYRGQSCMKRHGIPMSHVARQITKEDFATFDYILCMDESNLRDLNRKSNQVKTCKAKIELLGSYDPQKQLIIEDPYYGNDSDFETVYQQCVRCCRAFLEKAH

[2] = target: T1, Low molecular weight phosphotyrosine protein phosphatase; type: functional; details: read-out: IC50_Mean; remark: listed apart in the source
[3] = target: Cytochrome P450 2C9 (Homo sapiens, UniProt P11712)
[4] = target: Cytochrome P450 2C19 (Homo sapiens, UniProt P33261); assay: Cytochrome panel assay with activity outcomes. Panel member name: p450-cyp2c19 Compounds with AC50 equal or less than 10 uM are considered active; type: functional; details: read-out: AC50
[5] = target: Cytochrome P450 3A4 (Homo sapiens, UniProt P08684);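 further: CYP3A4 tested as one member of a cytochrome P450 panel screen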
[6] = target: T2, Sentrin-specific protease 7 (Homo sapiens, UniProt Q9BQF6); type: functional;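 further: Luminescence-based dose-response confirmation of ultra-high-throughput screening hits, measuring inhibition of SENP7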
T2 sequence (Q9BQF6 whole entry): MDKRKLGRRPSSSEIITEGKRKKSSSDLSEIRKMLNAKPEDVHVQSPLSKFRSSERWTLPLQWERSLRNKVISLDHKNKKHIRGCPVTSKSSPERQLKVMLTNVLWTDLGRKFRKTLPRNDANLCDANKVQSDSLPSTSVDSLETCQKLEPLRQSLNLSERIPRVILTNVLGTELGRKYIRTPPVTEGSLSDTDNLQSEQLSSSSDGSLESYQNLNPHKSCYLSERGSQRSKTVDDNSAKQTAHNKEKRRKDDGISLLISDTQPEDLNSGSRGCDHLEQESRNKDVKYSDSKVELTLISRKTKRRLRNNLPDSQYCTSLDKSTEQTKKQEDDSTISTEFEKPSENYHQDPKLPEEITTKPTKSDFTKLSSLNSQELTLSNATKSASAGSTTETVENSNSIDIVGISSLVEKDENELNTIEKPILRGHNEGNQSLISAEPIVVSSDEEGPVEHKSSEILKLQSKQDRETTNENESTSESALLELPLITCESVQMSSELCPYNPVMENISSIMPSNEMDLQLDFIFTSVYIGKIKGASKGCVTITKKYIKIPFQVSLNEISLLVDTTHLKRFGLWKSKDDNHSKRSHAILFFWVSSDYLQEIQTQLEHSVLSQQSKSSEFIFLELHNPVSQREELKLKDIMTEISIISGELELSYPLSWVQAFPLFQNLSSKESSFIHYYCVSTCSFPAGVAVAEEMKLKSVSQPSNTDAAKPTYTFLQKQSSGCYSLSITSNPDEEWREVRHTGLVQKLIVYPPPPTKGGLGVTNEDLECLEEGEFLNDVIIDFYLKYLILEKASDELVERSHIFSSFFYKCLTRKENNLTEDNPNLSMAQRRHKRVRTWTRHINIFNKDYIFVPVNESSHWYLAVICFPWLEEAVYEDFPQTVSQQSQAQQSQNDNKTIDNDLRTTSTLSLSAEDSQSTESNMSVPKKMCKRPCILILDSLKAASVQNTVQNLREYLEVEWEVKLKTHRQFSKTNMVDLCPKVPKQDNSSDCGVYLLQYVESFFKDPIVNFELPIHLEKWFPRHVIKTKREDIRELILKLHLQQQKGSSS

[7] = target: T3, Sentrin-specific protease 6 (Homo sapiens, UniProt Q9GZR1); type: functional;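 further: Luminescence-based dose-response confirmatory assay of SENP6 inhibition, following up an ultra-high-throughput screen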
T3 sequence (Q9GZR1 whole entry): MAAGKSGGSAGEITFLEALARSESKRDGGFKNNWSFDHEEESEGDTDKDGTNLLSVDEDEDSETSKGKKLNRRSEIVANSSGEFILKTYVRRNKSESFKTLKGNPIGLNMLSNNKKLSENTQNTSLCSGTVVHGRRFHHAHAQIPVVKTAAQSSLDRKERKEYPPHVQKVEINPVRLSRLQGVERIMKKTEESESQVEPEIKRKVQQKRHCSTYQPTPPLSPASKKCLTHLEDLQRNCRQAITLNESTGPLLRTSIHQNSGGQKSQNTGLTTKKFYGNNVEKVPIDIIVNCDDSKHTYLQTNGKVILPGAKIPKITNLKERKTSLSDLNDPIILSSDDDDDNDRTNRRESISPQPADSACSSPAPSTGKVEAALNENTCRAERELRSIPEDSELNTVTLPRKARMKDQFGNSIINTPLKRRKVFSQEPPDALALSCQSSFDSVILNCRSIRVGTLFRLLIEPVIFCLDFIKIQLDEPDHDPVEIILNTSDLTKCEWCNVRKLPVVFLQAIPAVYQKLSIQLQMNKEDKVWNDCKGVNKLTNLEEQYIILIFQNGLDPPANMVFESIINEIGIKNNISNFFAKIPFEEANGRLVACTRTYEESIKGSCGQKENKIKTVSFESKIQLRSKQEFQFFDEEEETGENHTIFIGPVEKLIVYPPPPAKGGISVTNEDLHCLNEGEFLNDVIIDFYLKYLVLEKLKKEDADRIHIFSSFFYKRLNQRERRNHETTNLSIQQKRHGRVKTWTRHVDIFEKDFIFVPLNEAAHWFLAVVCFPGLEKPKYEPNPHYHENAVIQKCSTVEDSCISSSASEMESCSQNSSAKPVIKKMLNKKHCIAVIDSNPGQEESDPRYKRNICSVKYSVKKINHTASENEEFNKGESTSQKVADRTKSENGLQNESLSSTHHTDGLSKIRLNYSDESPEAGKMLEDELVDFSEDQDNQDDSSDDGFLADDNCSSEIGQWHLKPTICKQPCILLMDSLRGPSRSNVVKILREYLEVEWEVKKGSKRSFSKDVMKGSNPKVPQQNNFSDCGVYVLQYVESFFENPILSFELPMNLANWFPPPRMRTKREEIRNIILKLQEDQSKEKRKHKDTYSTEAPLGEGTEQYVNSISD

[8] = target: T4, Caspase-3 (Homo sapiens, UniProt P42574); type: functional;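 further: Dose-response selectivity test against caspase-3 for candidate inhibitors of sentrin-specific proteases (SENPs)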
T4 sequence (P42574 whole entry): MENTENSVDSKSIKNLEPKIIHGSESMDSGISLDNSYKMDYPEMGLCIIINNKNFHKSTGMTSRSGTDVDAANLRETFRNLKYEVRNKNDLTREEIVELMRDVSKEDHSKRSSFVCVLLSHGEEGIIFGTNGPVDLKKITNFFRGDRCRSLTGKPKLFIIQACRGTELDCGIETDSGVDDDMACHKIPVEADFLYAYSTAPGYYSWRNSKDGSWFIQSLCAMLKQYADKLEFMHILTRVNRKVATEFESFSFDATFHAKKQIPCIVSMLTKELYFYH

[9] = target: T5, Sentrin-specific protease 8 (Homo sapiens, UniProt Q96LD8); type: functional;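 further: luminescence read-out of SENP8 inhibition, dose-response confirmation following an ultra-high-throughput screen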
T5 sequence (Q96LD8 whole entry): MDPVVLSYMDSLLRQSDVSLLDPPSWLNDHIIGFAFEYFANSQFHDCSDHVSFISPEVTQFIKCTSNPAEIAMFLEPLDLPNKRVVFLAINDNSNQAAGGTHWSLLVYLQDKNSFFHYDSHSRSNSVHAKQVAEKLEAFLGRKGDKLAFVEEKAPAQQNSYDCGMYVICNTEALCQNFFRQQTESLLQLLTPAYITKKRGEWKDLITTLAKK

[10] = target: Adenosylmethionine-8-amino-7-oxononanoate aminotransferase (Mycobacterium tuberculosis, UniProt P9WQ81); assay: Mycobacterium tuberculosis BioA enzyme inhibitor Measured in Biochemical System Using Plate Reader - 2163-02_Inhibitor_Dose_CherryPick_Activity.; type: functional, Mycobacterium tuberculosis UT205
[11] = target: T6, Apoptotic protease-activating factor 1 (Homo sapiens, UniProt O14727); assay: SAR analysis of small molecule Activators of Apaf-1 in a Fluorescent assay.; type: functional; details: read-out: EC50_Mean;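 further: caspase-3 cleavage of fluorogenic Rh110 DEVD substrate downstream of apoptosome activation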
T6 sequence (O14727 whole entry): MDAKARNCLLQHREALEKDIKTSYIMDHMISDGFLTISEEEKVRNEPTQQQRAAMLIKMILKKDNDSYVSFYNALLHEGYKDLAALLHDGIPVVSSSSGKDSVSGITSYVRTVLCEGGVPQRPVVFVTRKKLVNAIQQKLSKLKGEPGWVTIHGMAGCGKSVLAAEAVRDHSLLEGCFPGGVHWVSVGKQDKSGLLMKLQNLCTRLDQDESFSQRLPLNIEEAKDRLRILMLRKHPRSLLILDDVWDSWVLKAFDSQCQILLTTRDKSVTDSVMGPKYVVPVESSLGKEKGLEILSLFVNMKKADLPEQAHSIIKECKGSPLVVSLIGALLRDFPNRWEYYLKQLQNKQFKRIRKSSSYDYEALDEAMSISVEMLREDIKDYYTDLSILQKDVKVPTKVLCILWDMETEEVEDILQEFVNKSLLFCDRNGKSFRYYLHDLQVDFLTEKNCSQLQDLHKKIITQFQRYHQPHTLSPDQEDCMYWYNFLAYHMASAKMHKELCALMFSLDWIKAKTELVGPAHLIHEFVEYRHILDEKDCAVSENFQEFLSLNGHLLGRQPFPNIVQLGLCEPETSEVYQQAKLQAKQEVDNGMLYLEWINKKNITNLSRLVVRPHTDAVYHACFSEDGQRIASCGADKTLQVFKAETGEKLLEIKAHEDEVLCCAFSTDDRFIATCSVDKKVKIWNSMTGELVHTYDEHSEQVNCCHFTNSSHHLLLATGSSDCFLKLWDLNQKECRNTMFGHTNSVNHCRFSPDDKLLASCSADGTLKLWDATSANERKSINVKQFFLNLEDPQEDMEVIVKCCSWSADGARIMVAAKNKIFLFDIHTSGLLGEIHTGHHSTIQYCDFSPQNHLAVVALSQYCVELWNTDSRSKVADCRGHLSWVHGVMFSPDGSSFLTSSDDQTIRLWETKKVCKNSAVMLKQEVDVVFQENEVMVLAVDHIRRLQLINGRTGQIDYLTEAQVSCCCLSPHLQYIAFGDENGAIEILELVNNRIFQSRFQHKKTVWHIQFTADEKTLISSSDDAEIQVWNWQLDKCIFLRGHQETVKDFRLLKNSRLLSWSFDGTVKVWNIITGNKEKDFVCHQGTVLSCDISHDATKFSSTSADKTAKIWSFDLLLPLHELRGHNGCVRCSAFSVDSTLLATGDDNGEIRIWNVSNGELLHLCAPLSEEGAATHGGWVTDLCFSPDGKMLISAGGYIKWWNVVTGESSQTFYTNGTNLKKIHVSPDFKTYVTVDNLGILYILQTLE

[12] = C. albicans growth with fluconazole, confirmation, fluorescence, retest (AID 2467); type: functional, cell-based
[13] = target: T7, Polyadenylate-binding protein 1 (Homo sapiens, UniProt P11940); assay: PABP1 MLLE–PAM2 interaction inhibitors, dose response, miRNA deadenylation inhibitor project, biochemical, fluorescence polarization, Cy5-PAM2 peptide, secondary (AID 602260); type: functional; details: read-out: IC50_Mean
[14] = target: T7, Polyadenylate-binding protein 1; assay: PABP1 MLLE–PAM2 binding inhibitor potency, dose response, biochemical, fluorescence polarization, FITC-PAM2 peptide (AID 602259); type: functional; details: read-out: IC50_Mean
[15] = NIH-3T3 fibroblast cytotoxicity, dose response, cytotoxicity control, cell-based, fluorescence, Alamar Blue, secondary assay (AID 2327); type: functional;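 further: NIH-3T3 mouse fibroblasts cultured with fluconazole at 8 µg/mL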
[16] = target: Aryl hydrocarbon receptor (Homo sapiens, UniProt P35869); details: Potency;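 further: confirmatory quantitative high-throughput screen measuring activation of the AhR signaling pathway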
Chain of Aryl hydrocarbon receptor (P35869 whole entry): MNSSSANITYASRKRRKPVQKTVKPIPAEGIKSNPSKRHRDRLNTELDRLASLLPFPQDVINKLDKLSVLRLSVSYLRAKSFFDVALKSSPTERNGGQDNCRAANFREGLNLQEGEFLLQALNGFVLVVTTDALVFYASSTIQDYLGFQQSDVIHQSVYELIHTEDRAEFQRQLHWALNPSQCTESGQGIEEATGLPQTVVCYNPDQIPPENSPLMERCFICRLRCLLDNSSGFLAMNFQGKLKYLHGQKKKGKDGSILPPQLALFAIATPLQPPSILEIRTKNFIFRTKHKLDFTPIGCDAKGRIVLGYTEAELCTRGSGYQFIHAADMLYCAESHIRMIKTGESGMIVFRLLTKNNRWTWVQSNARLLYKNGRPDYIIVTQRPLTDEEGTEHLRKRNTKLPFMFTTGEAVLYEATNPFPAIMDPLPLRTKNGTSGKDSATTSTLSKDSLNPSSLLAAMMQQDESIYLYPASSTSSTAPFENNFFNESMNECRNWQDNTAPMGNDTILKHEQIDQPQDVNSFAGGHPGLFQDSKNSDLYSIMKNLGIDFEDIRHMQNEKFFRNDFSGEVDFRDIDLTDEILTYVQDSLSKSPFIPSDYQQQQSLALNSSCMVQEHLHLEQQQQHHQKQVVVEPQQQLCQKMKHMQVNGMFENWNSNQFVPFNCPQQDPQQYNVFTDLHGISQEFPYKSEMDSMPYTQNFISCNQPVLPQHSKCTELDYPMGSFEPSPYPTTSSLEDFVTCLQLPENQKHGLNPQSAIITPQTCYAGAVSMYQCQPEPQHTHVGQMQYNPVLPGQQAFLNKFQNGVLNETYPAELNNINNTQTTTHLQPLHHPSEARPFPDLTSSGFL

Chain of Adenosylmethionine-8-amino-7-oxononanoate aminotransferase (P9WQ81 whole entry): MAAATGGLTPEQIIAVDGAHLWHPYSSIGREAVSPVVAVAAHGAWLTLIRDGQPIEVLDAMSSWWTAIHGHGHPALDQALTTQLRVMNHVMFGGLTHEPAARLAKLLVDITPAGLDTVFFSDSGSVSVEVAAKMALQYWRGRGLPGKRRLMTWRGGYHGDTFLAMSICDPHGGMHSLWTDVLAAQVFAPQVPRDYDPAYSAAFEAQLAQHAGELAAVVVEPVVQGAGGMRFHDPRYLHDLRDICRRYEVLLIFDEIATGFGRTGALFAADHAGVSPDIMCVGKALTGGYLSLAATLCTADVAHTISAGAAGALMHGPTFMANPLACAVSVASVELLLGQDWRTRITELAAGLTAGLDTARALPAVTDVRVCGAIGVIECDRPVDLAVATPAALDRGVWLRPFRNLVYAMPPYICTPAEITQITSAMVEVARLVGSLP
T7 sequence (P11940 whole entry): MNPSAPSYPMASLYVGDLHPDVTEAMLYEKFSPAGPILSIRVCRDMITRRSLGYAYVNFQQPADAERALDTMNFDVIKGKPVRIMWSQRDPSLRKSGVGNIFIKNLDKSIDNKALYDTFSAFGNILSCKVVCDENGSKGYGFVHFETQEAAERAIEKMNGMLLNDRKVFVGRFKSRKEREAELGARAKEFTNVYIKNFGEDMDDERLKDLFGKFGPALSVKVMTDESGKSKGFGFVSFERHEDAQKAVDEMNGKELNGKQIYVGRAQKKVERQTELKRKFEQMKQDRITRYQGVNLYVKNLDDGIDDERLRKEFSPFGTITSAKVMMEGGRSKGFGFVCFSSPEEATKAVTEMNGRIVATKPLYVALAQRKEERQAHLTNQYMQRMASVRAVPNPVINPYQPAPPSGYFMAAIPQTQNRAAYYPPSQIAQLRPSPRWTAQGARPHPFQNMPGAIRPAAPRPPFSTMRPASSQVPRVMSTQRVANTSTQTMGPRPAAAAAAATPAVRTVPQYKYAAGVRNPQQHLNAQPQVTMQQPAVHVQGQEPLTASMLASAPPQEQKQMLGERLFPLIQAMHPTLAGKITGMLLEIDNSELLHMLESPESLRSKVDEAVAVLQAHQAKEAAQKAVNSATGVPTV
Chain of Cytochrome P450 3A4 (P08684 whole entry): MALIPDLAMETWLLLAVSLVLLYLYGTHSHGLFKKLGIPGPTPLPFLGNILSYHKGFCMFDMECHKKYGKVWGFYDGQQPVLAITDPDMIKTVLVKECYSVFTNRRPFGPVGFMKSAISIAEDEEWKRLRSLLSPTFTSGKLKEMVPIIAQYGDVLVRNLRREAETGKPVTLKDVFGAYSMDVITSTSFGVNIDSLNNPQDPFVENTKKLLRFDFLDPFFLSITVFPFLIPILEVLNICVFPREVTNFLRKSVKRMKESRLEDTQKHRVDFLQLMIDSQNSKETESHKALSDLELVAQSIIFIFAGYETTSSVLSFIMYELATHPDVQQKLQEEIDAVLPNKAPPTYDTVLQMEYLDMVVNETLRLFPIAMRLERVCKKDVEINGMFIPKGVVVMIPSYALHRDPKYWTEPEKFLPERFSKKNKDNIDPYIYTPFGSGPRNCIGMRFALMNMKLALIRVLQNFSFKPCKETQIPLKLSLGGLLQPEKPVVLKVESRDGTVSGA
Chain of Cytochrome P450 2C9 (P11712 whole entry): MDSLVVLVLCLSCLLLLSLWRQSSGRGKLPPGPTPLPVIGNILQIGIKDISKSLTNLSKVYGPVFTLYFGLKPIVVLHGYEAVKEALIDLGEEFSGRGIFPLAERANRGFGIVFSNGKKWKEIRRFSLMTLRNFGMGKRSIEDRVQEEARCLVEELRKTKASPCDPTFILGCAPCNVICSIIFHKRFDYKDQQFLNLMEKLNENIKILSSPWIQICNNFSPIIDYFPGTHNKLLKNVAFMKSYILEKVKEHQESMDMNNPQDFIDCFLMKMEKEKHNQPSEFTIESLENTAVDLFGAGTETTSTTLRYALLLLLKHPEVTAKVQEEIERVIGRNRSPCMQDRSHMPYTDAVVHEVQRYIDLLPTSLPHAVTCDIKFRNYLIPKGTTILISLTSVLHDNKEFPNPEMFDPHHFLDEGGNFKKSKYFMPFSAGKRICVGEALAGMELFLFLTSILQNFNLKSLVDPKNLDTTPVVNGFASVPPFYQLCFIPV
Chain of Cytochrome P450 2C19 (P33261 whole entry): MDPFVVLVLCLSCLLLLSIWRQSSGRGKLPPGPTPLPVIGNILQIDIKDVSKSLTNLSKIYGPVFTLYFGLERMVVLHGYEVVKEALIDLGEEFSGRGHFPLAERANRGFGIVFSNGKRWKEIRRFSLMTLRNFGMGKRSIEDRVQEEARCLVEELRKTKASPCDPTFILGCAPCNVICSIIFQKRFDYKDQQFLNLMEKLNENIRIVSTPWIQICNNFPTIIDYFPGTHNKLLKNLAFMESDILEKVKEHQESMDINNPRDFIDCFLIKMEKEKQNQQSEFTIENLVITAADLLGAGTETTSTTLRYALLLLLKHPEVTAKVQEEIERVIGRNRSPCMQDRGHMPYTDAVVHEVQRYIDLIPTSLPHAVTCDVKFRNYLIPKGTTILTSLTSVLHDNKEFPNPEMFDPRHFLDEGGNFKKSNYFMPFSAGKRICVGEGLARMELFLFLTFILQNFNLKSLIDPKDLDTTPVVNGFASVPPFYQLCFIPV

## Cc1ccc(-c2nc(NCc3cccnc3)c3ccccc3n2)cc1
[1]
  IC50: 8.04 µM (active)
[2]
  IC50: 13.7 µM (active)

## O=C(Nc1cccc(-c2nc3ncccc3o2)c1)c1sc2ccccc2c1Cl
[3]
  AC50: 2 µM (inconclusive)
[1]
  IC50: 3.81 µM (active)
[4]
  AC50: 0.355 µM (inconclusive)
[5]
  AC50: 3.98 µM (inconclusive)

## O=C(Oc1ccc(OC(=O)N2CCOCC2)cc1)c1ccccc1
[6]
  IC50: 14.2 µM (active)
[7]
  IC50: > 100 µM (inactive)
[8]
  IC50: 14.8 µM (active)
[9]
  IC50: > 100 µM (inactive)

## CC(=O)c1ccc(C(=O)N2CCCC(CCC(=O)N(C)CCc3ccccn3)C2)s1 (centres undefined)
[10]
  AC50: 12.4 µM (active)

## CCOC(=O)c1cnc(SSc2ncc(C(=O)OCC)c(N)n2)nc1N
[2]
  IC50: 14.5 µM (active)

## CCS(=O)(=O)c1ccc2c(c1)NC(=O)C(C)(C(=O)O)O2 (centres undefined)
[11]
  EC50: > 100 µM (inactive)

## COc1ccc(C)cc1NC(=O)CCS(=O)(=O)c1ccc2c(c1)CC(=O)N2C
[11]
  EC50: > 100 µM (inactive)

## O=C(C1CCOCC1)N1CC[C@@H]2[C@H](CO)Nc3ccc(Br)cc3[C@@H]21
[10]
  AC50: 4.43 µM (active)

## Cc1[nH]n(C(N)=S)c(=O)c1/N=N/c1ccc(S(=O)(=O)N2CCCCCC2)cc1
[6]
  IC50: 9.68 µM (active)
[12]
  EC50: > 38 µM (not active)
[13]
  IC50: > 66 µM (inactive)
[7]
  IC50: 15.5 µM (active)
[8]
  IC50: 12.9 µM (active)
[14]
  IC50: > 66 µM (inactive)
[9]
  IC50: 2.52 µM (active)
[15]
  EC50: > 160 µM (inactive)

## COP(=S)(OC)Oc1c(Cl)cc(C)cc1Cl [TOLCOFOS-METHYL]
[16]
  AC50: 79.4 µM (inconclusive)
